Assay results published in patent US20170362590A1, “PHARMACEUTICAL COMPOSITIONS COMPRISING MICRORNA” (OREGON HEALTH & SCIENCE UNIVERSITY, priority 2016, published 2017).

Legend:
CD44 = CD44 expression (Human Senescence gene array); assay type: cell-based; details: HUVEC
Experimental: (§1) Total RNA and microRNA were isolated using miRVana microRNA isolation kit (Ambion). Reverse transcription was performed using TaqMan™ Advanced cDNA Synthesis Kit (Life Tech) according to the manufacture instructions. RT-PCR was performed using multiplexed TaqMan primers (Applied Biosystems). The relative quantification of gene expression was determined using the 2-DDCtmethod. Using this method, we obtained the fold changes in gene expression normalized to an internal control gene, GAPDH or U6 snRNA, respectively. A DNA damage array (LifeTech) was used for targeting analysis and a Human Cellular Senescence array (SA Biosciences) was used for senescence phenotype profiling.
CD44 expression was analyzed by flow cytometry in HUVECs transfected with miR-494 for 48 hours. Cells were washed in PBS and tripsinazed. Cells were incubated in blocking solution (0.5% BSA/10% goat serum) for 30 min and 1 hour in primary antibody-PEcy7 conjugated (CD44, BD, 560533) prepared in blocking solution. Then cells were washed in PBS 3×. Cells were analyzed in a CANTOII equipment.

murine 4T1 tumors = assay: Orthotopic 4T1 tumor growth; assay type: in vivo; details: implanted orthotopically in Balb/C mice
Description: FIG. 5C is a graph of 4T1 tumor weights on day 21 after orthotopic mammary fat pad implantation of either control or miR-494-3p transfected tumors. N=8 mice per group and * indicates P<0.05.

HUVEC [1] = assay: β-Gal senescence assay; assay type: cell-based, human; details: for senescence (β-galactosidase positive cells): 48 hours after transfection, relative to controls; for senescence phenotype in old HUVECs: high-passage HUVEC, β-galactosidase assay
Description: After this time cells were washed whit cold PBS and then stain for β-galactosidase activity following manufacture protocol (Senescence Cells Histochemical Staining Kit, Sigma).

[2] = tested on: 3'-UTRs of MRE11a, RAD50, and NBN; assay: 3'-UTR luciferase reporter assay in HEK-293T cells; assay type: cell-based, human; details: 24 hours cotransfection
Experimental: To determine targets of miR-99b and miR-494, the RNAs were ectopically expressed in HUVECs. Targets were analyzed using a DNA damage array 24 hours after transfection. Three common targets for miR-99b and miR-494 were identified: MRE11a, RAD50 and NBN. These three proteins form the MRN complex which is involved in homologous repair and non-homologous end joining. mRNA targets of miR-494 and miR-99b were also assessed using a miR-TRAP assay. […] Finally, the 3′-UTRs of MRE11a, RAD50, and NBN were cloned into luciferase reporter vectors. The luciferase vectors were contrasfected with miR-494 and miR99b into HEK-293T cells for 24 hours.
MRE11a Luciferase-3-UTR plasmid was purchased from SwitchGear Genomics. RAD50 and NBN luciferase constructs were purchased as pmiR-REPORT vector (Ambion). Luciferase assay reagents were purchased from Switch Gear Genomics and Promega.
Cells were transfected at 50-60% confluence using standard forward transfection protocols using RNAimax reagent (Life Technologies) for miRs/siRNAs and Lipofectamine 2000 for plasmid or plasmid RNA dual transfections. Typically 50 nM RNA and […] plasmid DNA were used for transfections. Target protectors were transfected at a concentration of 50 nM or equivalent to the miR amounts.

MRE11a, RAD50 and NBN = assay: Target validation in HUVEC (Western blot, qPCR); assay type: cell-based, human; details: qPCR and immunofluorescence
Experimental: After treatment, cells were washed in phosphate-buffered saline (PBS) and prepared in RIPA lysis buffer (Sigma) supplemented with Complete Protease inhibitor cocktail (ROCHE) and Phosphatase inhibitors cocktail 2 and 3 (Sigma). Cells were harvested by scraping, and proteins were analyzed by Western blot. Equivalent amounts of protein were loaded on a 4-12% gradient SDS-polyacrylamide gel (BioRAD) and transferred for 30 min to a TransBlot turbo (BioRAD) nitrocellulose membrane. Membranes were blocked in 5% milk or 3% BSA and incubated with antibodies as indicated: Mre11a (Cell Signaling, 4847, 1:1000), RAD50 (Cell Signaling, 3427, 1:1000), NBS1 (Cell Signaling, 14956, 1:500), p-ATM (Cell Signaling, 4526, 1:500), H2AX (Abcam 11174, 1:500), p21 (Cell Signaling, 2947, 1:1000), P-Rb (Cell Signaling, 9301, 1:500), ERK1/2 (Cell Signaling, 9102, 1:1000), P-ERK1/2 (9101, 1:1000). β-actin (Sigma, A5316, 1:10,000 1 h RT) was used as housekeeping controls for the total levels of protein loaded. Membranes were washed in TBST and incubated with secondary antibodies from Licor Biosciences were used goat anti mouse 925-68020 (1:15,000) and goat anti rabbit 925-32211 (1:15,000). […]
Total RNA and microRNA were isolated using miRVana microRNA isolation kit (Ambion). […] The relative quantification of gene expression was determined using the 2-DDCtmethod. […]

p21 = assay: Western blot of p21 in HUVEC; assay type: cell-based, human; details: HUVEC expressing the miRNAs
Experimental: After treatment, cells were washed in phosphate-buffered saline (PBS) and prepared in RIPA lysis buffer (Sigma) supplemented with Complete Protease inhibitor cocktail (ROCHE) and Phosphatase inhibitors cocktail 2 and 3 (Sigma). Cells were harvested by scraping, and proteins were analyzed by Western blot. Equivalent amounts of protein were loaded on a 4-12% gradient SDS-polyacrylamide gel (BioRAD) and transferred for 30 min to a TransBlot turbo (BioRAD) nitrocellulose membrane. Membranes were blocked in 5% milk or 3% BSA and incubated with antibodies as indicated: Mre11a (Cell Signaling, 4847, 1:1000), RAD50 (Cell Signaling, 3427, 1:1000), NBS1 (Cell Signaling, 14956, 1:500), p-ATM (Cell Signaling, 4526, 1:500), H2AX (Abcam 11174, 1:500), p21 (Cell Signaling, 2947, 1:1000), P-Rb (Cell Signaling, 9301, 1:500), ERK1/2 (Cell Signaling, 9102, 1:1000), P-ERK1/2 (9101, 1:1000). β-actin (Sigma, A5316, 1:10,000 1 h RT) was used as housekeeping controls for the total levels of protein loaded. Membranes were washed in TBST and incubated with secondary antibodies from Licor Biosciences were used goat anti mouse 925-68020 (1:15,000) and goat anti rabbit 925-32211 (1:15,000). Blots were scanned on the Licor Odyssey scanner according to manufacturer's instructions.

HUVEC [3] = assay: HUVEC cell proliferation assay; assay type: cell-based, human; details: for proliferation relative to controls: HUVEC, overexpression for 48 hours; for proliferation in old HUVECs: high-passage HUVEC
HUVEC [4] = assay: 3-D angiogenic sprouting assay (fibrin bead); assay type: cell-based; details: 3D-fibrinogen assay, co-culture with human aortic smooth muscle cells
Experimental: Early passage HUVECs were coated on cytodex-3 (GE Healthcare) beads at a density of 10 million cells/40 μl beads and incubated in suspension for 3-4 hours with gentle mixing every hour. They were plated on TC treated 6 well dishes overnight and resuspended in a 2 mg/ml fibrin gel with 200,000 human smooth muscle cells. The gel was allowed to polymerize and complete EGM-2 media was added. Sprouts were visualized from days 3-4 via confocal imaging after overnight incubation with FITC labeled Ulex europaeus lectin (Vector labs). Immunofluorescence imaging was performed on a Yokogawa CSU-W1 spinning disk confocal microscope with 20 0.45 Plan Fluor objective (Nikon).

[5] = tested on: MRE11a, RAD50, and NBN mRNAs; assay: miR-TRAP/RISC TRAP assay; assay type: cell-based; details: 293 T cells, 24 hours
Experimental: 293 T cells were co-transfected with a plasmid coding for a flag-tagged dominant negative […] mutant (Clontech) along with a control mimic, miR-99b or miR-494 mimic according to kit instructions. Twenty-four hours later the RNA protein complexes were crosslinked and the RISC complex was immunoprecipitated using an anti-FLAG antibody and RNA was isolated for quantitative real-time PCR of target genes. The fold enrichment was calculated using pre and post IP controls as well as normalization to the control mimic pull-downs.

[6] = tested on: Matrigel plugs in nu/nu mice; assay: Matrigel plug angiogenesis assay in vivo
Experimental: as §1
In some experiments, CD31a and Mre11a were visualized using immunofluorescence staining from OCT sections of tumor tissue. Slides were fixed with 4% PFA and stained overnight for CD31, Mre11a, or ASMC. Imaging was performed on a Nikon Spectral C1 confocal microscope (Nikon C1si with EZC1 acquisition software, Nikon Instruments) with Plan Apo 10×/0.45 air, Plan Apo 20×/0.75 air, and Plan Apo 60×/1.40 oil objective lenses (Nikon). Some immunofluorescence imaging was performed on a Yokogawa CSU-W1 spinning disk confocal microscope with 20 0.45 Plan Fluor objective (Nikon). All images were taken with a channel series. Images were analysed with Image J software for quantitation.
Immune-compromised 8-10 week old female nu/nu mice purchased from Jackson Labs. Growth factor reduced Matrigel (BD) with 400 ng ml 1 recombinant human bFGF (Millipore) was injected subcutaneously in nu/nu mice. Mice were injected i.v with 7C1-nanoparticles containing miR-494 or control miR (0.7 mg/kg, i.v) 3 or 4 days after plugs were implanted. At day 7 mice were harvest and lysed to obtained RNA or frozen in OCT for tissue staining.

[7] = tested on: telomerase activity in HUVEC; assay: Telomerase activity assay; assay type: cell-based, human; details: 48 hours of ectopic expression
Experimental: […] Cells were lysed and processed according to the manufacturer's instructions (Quantitative Telomerase Detection Kit, Allied Biotech). The telomerase activity in the cell extract was determined through its ability to synthesize telomeric repeats onto an oligonucleotide substrate. The resulting products were subsequently amplified using the polymerase chain reaction (PCR).

HUVEC [8] = assay: HUVEC apoptosis; assay type: cell-based, human; details: overexpression for 48 hours
breast cancer cell = assay: Breast cancer cell proliferation in 2D and 3D assays; assay type: cell-based; details: ectopic expression
ERK = assay: VEGF-dependent ERK phosphorylation (western blot); assay type: cell-based, human; details: HUVECs treated with VEGF (10 min)
[9] = tested on: VEGF-early gene signature; assay: VEGF-early response gene expression; assay type: cell-based, human; details: HUVEC, VEGF 50 ng/ml
Experimental: HUVECs were transfected for a total of 48 hours. At 24 hours cells were starved overnight and then treated 3 hours with VEGF (50 ng/ml). Graphs depict mean mRNA levels+SEM.
as §1

| Compound | expression of CD44, a marker of senescence (CD44) | senescence (β-galactosidase positive cells) (HUVEC [1]; HUVEC) | senescence phenotype in old HUVECs (HUVEC [1]) | luciferase expression from 3'-UTR reporter vectors [2] | protein expression of target mRNAs (MRE11a, RAD50, NBN) (MRE11a, RAD50 and NBN) | expression of cell cycle regulator p21 (p21) | proliferation relative to controls (HUVEC [3]) | proliferation in old HUVECs (HUVEC [3]) | sprouting angiogenesis (HUVEC [4]) | enrichment of target mRNAs in RISC pulldown relative to controls [5] | telomerase activity [7] | apoptosis (HUVEC [8]) | phosphorylation of ERK (ERK) | also measured |
| --- | --- | --- | --- | --- | --- | --- | --- | --- | --- | --- | --- | --- | --- | --- |
| miR-494: Human miR-494-3p (SEQ ID NO: 1), used as miR mimic; in vivo delivered in 7C1 nanoparticles (sense UGAAACAUACACGGGAAACCUC; delivered in vivo in 7C1 nanoparticles, further chemistry not given here; listed as Homo sapiens) | induced expression of CD44 | higher number of β-galactosidase positive cells | restored a senescence phenotype | Significantly less luciferase expression | Blocking of protein expression | greater expression | less proliferation | without dramatically changing proliferation | inhibited sprouting angiogenesis | enrichment of all of MRE11a, RAD50, and NBN | Impaired telomerase activity | no effect on apoptosis |  | growth of 4T1 tumors (murine 4T1 tumors): decreased the growth; senescence (β-galactosidase positive cells) (HUVEC [1]; HUVEC, listed as miR-494-3p): lead to endothelial senescence; sprouting angiogenesis (HUVEC [4]; listed as miR-494-3p): inhibit sprouting angiogenesis; Pecam1 mRNA expression in plugs relative to controls ([6]; Matrigel plugs, 7C1 nanoparticles): lower expression; less CD31 staining relative to controls ([6]; Matrigel plugs, miR delivered with endothelial targeted nanoparticle 7C1, 0.7 mg/kg i.v.): 50%; Mre11a mRNA expression in plugs ([6]; RNA isolated from Matrigel plugs, 7C1 nanoparticles): significantly less Mre11a expression; telomerase activity ([7]; listed as miR-494-3p): impairing telomerase function; breast cancer cell proliferation (breast cancer cell): diminished breast cancer cell proliferation |
| N=C1NC(=O)/C(=C/c2ccc(O)cc2)S1 [Mirin-1, reference compound] |  |  |  |  |  |  |  |  |  |  |  |  | decreased ERK phosphorylation | senescence (HUVEC [1]; HUVEC, 50 uM, after 24 hours): induce senescence |
| miR-21-3p: Human miR-21-3p (SEQ ID NO: 2), used as miR mimic (sense CAACACCAGUCGAUGGGCUGU; listed as RNA, chemistry not given here; listed as Homo sapiens) |  | lead to endothelial senescence |  |  |  |  |  |  | inhibit sprouting angiogenesis |  | impairing telomerase function |  |  |  |
| miR-99b: Human miR-99b-5p (SEQ ID NO: 3), used as miR mimic (sense CACCCGUAGAACCGACCUUGCG; listed as RNA, chemistry not given here; listed as Homo sapiens) | induced expression of CD44 | higher number of β-galactosidase positive cells | restored a senescence phenotype | Significantly less luciferase expression | Blocking of protein expression | greater expression | less proliferation | without dramatically changing proliferation | inhibited sprouting angiogenesis | only MRE11a was enriched | Impaired telomerase activity | no effect on apoptosis | lower rate of phosphorylation of ERK | specific-VEGF-early gene signature [9]: block a specific-VEGF-early gene signature; senescence (β-galactosidase positive cells) (HUVEC [1]; HUVEC, listed as miR-99b-5p): lead to endothelial senescence; sprouting angiogenesis (HUVEC [4]; listed as miR-99b-5p): inhibit sprouting angiogenesis; telomerase activity ([7]; listed as miR-99b-5p): impairing telomerase function |
